In a melting point compilation (Tetko et al.; mined from patent text by program, amines drawn as free bases though some values may be those of a salt):

| melting point [°C] | Structure (SMILES) |
| --- | --- |
| 143 to 145 | N#CC1=Cc2ccccc2N(C(N)=O)c2ccccc21 |
| 114 to 115 | CCOC(=O)CCc1n[nH]c(SCc2ccc(OCc3nc(-c4ccccc4)oc3C)cc2)n1 |
| 98 to 99 | O=C(O)CCCCc1ccccc1CNC(=O)C1Cc2ccccc2N1S(=O)(=O)c1ccc(-c2cccc(C(F)(F)F)c2)cc1 (stereo unspecified) |
| 145 to 152 | CC(COc1ccc(CC2SC(=O)NC2=O)cc1)NCC(O)Cc1ccccc1 (stereo unspecified) |
| 206 to 207 | CC1CN(c2ccc(C(N)=O)cc2)CC(C)N1CCC1OCCc2ccccc21 (stereo unspecified) |
| 153 to 154 | CCOC(=O)c1nc(-c2ccccc2)c(-c2ccc(=O)n(C(C)C)n2)s1 |
| 188 | NS(=O)(=O)c1cccc(-c2cccc(-c3nc(-c4ccc(C(F)(F)F)c(OCC(F)(F)F)c4)cc(C(F)(F)F)n3)c2)c1 |
| 179 to 182 | COc1cc(OC)c(-c2cccs2)cc1/C=C/C(=O)c1cccc(C(=O)O)c1 |
| 232 to 234 | Cc1nc2c3c(ccn2c1C)C(=O)C(O)C(c1ccccc1)N3 (stereo unspecified) |
| 149 | Cc1ccc(S(=O)(=O)Oc2ccc(S(=O)(=O)c3c(C(C)C)cn4ncccc34)cc2)cc1 |
| 188 to 191 | N#Cc1ccc(Nc2nc(Oc3c(Br)cc(Br)cc3Br)ccc2[N+](=O)[O-])cc1 |
| 222 to 224 | CN1C(=O)N(c2c(Cl)cccc2Cl)Cc2cnc(Nc3ccccc3)nc21 |
| > 300 | Cn1cc(-c2cc3cccnc3[nH]2)c2cc(C(=O)O)ccc21 |
| 165 | CN(C)CCCC(=O)N1CCOc2cc3ncc(C#N)c(Nc4ccc(F)c(Cl)c4)c3cc21 |
| 159 | CCOC(Cc1ccc(OCCn2ccc3ccc(C(=O)C4CC4)nc32)cc1)C(=O)OC (stereo unspecified) |
| 96 to 97 | CCOC(=O)C(=CNc1ccnn1-c1ccccc1)C(=O)OCC |
| 80 to 81 | CN(C)c1nc(N(C)Cc2ccc(O)cc2)nc(N(C)Cc2ccccc2O)n1 |
| 236 to 239 | Cc1cnc2nc(NS(=O)(=O)c3ccccc3Cl)nn2c1 |
| 190 to 191 | CC(=O)Nc1ccc(S(=O)c2ccc(Br)cc2)cc1 (stereo unspecified) |
| 91 to 93 | COc1cc(N)c(Cl)cc1C(=O)NCC1(OC)CCN(CCCCCC(=O)c2ccccc2)CC1 |
| 92 | O=C(Cl)c1ccc(C(=O)c2ccccc2)cc1 |
| 155 | O=S(=O)(c1ccc(Nc2nccc(Nc3ccc(F)cc3)n2)cc1)N(CCN1CCCC1)C1CCC2(CC1)OCCO2 |
| 296 to 297 | Oc1nc(-c2ccccc2)nc(-c2ccccc2)n1 |
| 164 to 166 | CCOC(=O)C[C@H]1O[C@H](c2ccc(OCC)cc2OC)c2cc(Cl)ccc2N(CC(C)(C)C)C1=O (relative stereo) |
| 102 to 105 | CN(CCCNC(=NCCCCOc1cccc(CN2CCCCC2)c1)NC#N)CCN(Cc1ccc(F)cc1)c1ccccn1 |
| 161 to 162 | CC(=O)OCC(=O)NNC(=O)c1ccc2occ(-c3cccc(OC(F)(F)F)c3)c2c1 |
| 101 to 102 | Cc1sc(-c2ccccc2)nc1COc1ccc(COc2ncccc2C=O)cc1 |
| 130 | COc1ccc(C(=O)Nc2ccc3ccc(SC)nc3n2)cc1 |

| melting point [°C] | Structure (SMILES) |
| --- | --- |
| 207 to 208 | Nc1nc(-c2ccc(Cl)cc2)c(CCO)c2ncnn12 |
| 191 to 192 | Cc1cccc(-c2nc3ccc(Cl)nn3c2-c2ccnc(Nc3ccccc3C)c2)c1 |
| 101 to 103 | COC(=O)c1cc(Oc2c(Cl)cc(Cl)cc2Cl)ccc1[N+](=O)[O-] |
| 218 | N#Cc1cc(NC(=O)c2cc3ccccc3s2)ccc1N1CCC(CCO)CC1 |
| 143 to 145 | Clc1ccc(C(=NN=Cc2cccnc2)SSC(=NN=Cc2cccnc2)c2ccc(Cl)cc2)cc1 |
| 51 to 52 | C=C(c1ccccc1)c1ccc(N(C)C)cc1 |
| 195 | CN(c1cccc2cc(C3=NCC(CCNc4nnc[nH]4)S3)[nH]c12)S(=O)(=O)c1cccs1 (stereo unspecified) |
| 245 to 246 | COc1cc(OC)c2c(=O)cc(-c3nc4ccccc4[nH]3)oc2c1 |
| 87 to 89 | CSc1nccc(-c2ccccc2)n1 |
| 115 to 122 | COc1cccc(S(=O)(=O)c2ccc3c(c2)c(CCNC(=O)OC(C)(C)C)c(C)n3C)c1 |
| 172 to 174 | O=C(O)C(=O)CC(=O)c1cccn1Cc1cccc2ccccc12 |
| 207 to 209 | COc1ccc(S(=O)(=O)Nc2ccccc2/C=C/c2ccncc2)cc1 |
| 172 to 174 | CN(c1cccc2cc(C3=NCC(CCN)S3)[nH]c12)S(=O)(=O)c1cccs1 (stereo unspecified) |
| 224 | CC#CCOc1ccc(S(=O)(=O)C(C(=O)NO)C2CCN(C(=O)c3ccccc3)CC2)cc1 (stereo unspecified) |
| 110 to 112 | ClCCCOc1ccccc1Nc1nc(Cl)nc2c1ncn2C1CCCC1 |
| 61 to 62 | O=C1C(=Cc2ccsc2)CCc2cc(OCCn3ccnc3)ccc21 |
| 177 to 179 | CCc1coc2c(-c3ccc(F)cc3)c(-c3ccc(S(C)(=O)=O)cc3)nn12 |
| 121 to 122 | Cc1ccc(Cl)cc1NC(=S)n1c(C)cc2ccccc21 |
| 128 to 129 | COc1cc(/C=C/CO)ccc1OCc1nc(-c2ccco2)oc1C |
| 247 to 255 | Cc1oc(-c2ccc(Cl)cc2)cc1C(=O)Nc1cc(Cl)ccc1-c1nnn[nH]1 |
| 145 to 147 | COc1ccc(-c2cc(F)ccc2C#N)cc1 |
| 221 | Cc1cc(-c2cnn3c(C(F)F)cc(-c4ccc(C(F)(F)F)c(C)c4)nc23)ccn1 |
| 48 to 55 | O=c1cc(O)cnn1Cc1ccccc1 |
| 104 to 106 | CC(C)(C)c1ccccc1N1CCN(C(=O)c2ccccc2)CC1 |
| 172 | NS(=O)(=O)c1ncccc1-c1ccccc1 |
| 197 | Nc1ccc(NCCc2ccccc2)c(S(=O)(=O)CCO)c1 |
| 146 | CC(=O)C1c2cccc(O)c2C(=O)c2c(O)cccc21 |

Further lines, the compound ahead of its results:

| Structure (SMILES) | melting point [°C] |
| --- | --- |
| COC(=O)c1cc(C(C)(C)C)cc(C(C)(C)C)c1 | 52 to 52.5 |
| O=C(CP(=O)(O)O)NCc1ccccc1 | 130 to 134 |
| Cc1ccc(-c2c(F)c(F)c3c(=O)c(C(=O)O)cn(C4CC4)c3c2F)c(C)n1 | 264 to 266 |
| CCCCC(CC)COC(=O)COc1cc(F)ccc1C(=O)NCc1cccc([N+](=O)[O-])c1 (stereo unspecified) | 59 to 60 |
| Cc1nc(C)n(-c2cc(C)c3[nH]c(=O)ccc3c2)c1C#N | 334 to 337 |
| N#CC1=C(C#N)Sc2nc3cc([N+](=O)[O-])c(Cl)cc3nc2S1 | 228 to 230 |
| CCOC(=O)c1cc(NC(=O)C(Cc2cscn2)NC(=O)OC(C)(C)C)c[nH]1 (stereo unspecified) | 217 to 220 |
| CC1=C(C(=O)OCC(Cl)(Cl)Cl)N2C(=O)C(NC(=O)Cc3ccccc3)C2SC1 (stereo unspecified) | 162 |
| Cn1ncnc1-n1cc(C(=O)O)c(=O)c2cc(F)c(F)cc21 | 254 to 264 |
| Cc1noc(C)c1C(C)(O)c1ccsc1 (stereo unspecified) | 93.5 to 95 |
| Cc1cc(F)cc(Oc2ccc([C@@H]3CCCN4CCS(=O)(=O)N=C34)cc2)c1 | 158 to 159 |
| CCCCCC(C)(C)NC(=O)CCl | 36 to 37 |
| CC(=O)N[C@@H](CSC(=O)C(C)(C)C)C(=O)NCCSC(C)=O | 92 to 94 |
| OC(CNc1nnc2n1CCCC2)COc1cccc(CN2CCCCC2)c1 (stereo unspecified) | 141 to 142 |
| CC(=O)NC(NC(=O)C(F)(F)F)C(=O)NCc1ccccc1 (stereo unspecified) | 228 to 230 |
| CC(C)(C)OC(=O)[C@H](O)CCc1ccc([N+](=O)[O-])cc1 | 41 to 42 |
| CC(CC(C(=O)N(C)C)(c1ccccc1)c1ccccc1)N1CCC(NCc2ccccc2)C(O)C1 (stereo unspecified) | 134 |
| CCCCCCCCCC(=O)CCC(C)=O | 52 to 53 |
| CS(=O)(=O)OCC(O)(CC(Cl)(Cl)Cl)c1cc(Cl)cc(Cl)c1 (stereo unspecified) | 99 to 104 |
| CC(C)(CO)c1cc2c(cc1Cl)C=C(C(=O)O)C(C(F)(F)F)O2 (stereo unspecified) | 204 to 205 |
| CCCCC(C)OC(=O)c1ccccc1S(=O)(=O)NC(=O)Nc1nc(C)nc(OC)n1 (stereo unspecified) | 125 to 130 |
| COc1ccc2sc(C(=O)OCC(C)(C)C(=O)C(C)(C)C)cc2c1 | 74 to 75.5 |
| CC1CCn2c(nc(-c3ccncc3)cc2=O)N1 (stereo unspecified) | 245 to 247 |

| Structure (SMILES) | melting point [°C] |
| --- | --- |
| NC(=O)C1=C(C(=O)Nc2cc(OC3CCCC3)c(Cl)cc2F)CCCC1 | 200 to 201 |
| COC(=O)C1=C(C)NC(C)=C(C(C)=O)C1c1ccccc1Br (stereo unspecified) | 146 to 148 |
| Cc1cccc(C)c1NC(=O)N=C1N(C)CC(=O)N1C | 116 to 118 |
| CC(C)(C)NC(=O)c1ccccc1O | 78 to 79.5 |
| CCCCOC(=O)c1ccc(-c2cc(-c3ccc4c(c3)C(C)(C)CCC4(C)C)nc(O)n2)cc1 | 267 to 277 |
| Cc1nnc(-c2ccc3occc3c2)o1 | 159 to 160 |
| CCN1CCC(C(C(N)=O)(c2ccccc2)c2ccccc2)C1 (stereo unspecified) | 141 to 142 |
| O=C(O)c1cn(-c2ccc(SC(F)(F)F)cc2)cn1 | 247 to 248 |
| CN1CCN(c2cccc3c2CC[C@@H](N)C3)CC1 | 98 to 99 |
| COC1C=C(C)C(=O)CC(C)(C)C1OC(=O)c1ccccc1C(=O)O (stereo unspecified) | 158 |
| CC(C)(S)CN1CCN(CCOCCO)CC1 | 38 |
| CCOC(=O)C=CC=Cc1ccc([N+](=O)[O-])cc1 | 150 to 152 |
| NNc1cc(OCC2CCCSC2)c(Cl)cc1F (stereo unspecified) | 83 to 87 |
| Cc1cc(C(=O)NC2CC2)ccc1N1CCN(C(=O)OC(C)(C)C)CC1 | 111 to 115 |
| CCCCC(=NNC(=O)OC(C)(C)C)c1ccncc1 | 156 |
| CC(=O)Nc1cccnc1Cl | 81 to 83 |
| COC(=O)COc1ncccc1[N+](=O)[O-] | 61.5 |
| CC(C)(C)c1cc(SCCc2nnc(N)o2)cc(C(C)(C)C)c1O | 172 to 174 |
| CCc1nc2c(N)nc3ccccc3c2n1CC1(C(N)=O)CCC1 | 227 to 230 |
| CC(C)Cn1nc(-c2ccc(C(F)(F)F)cc2)cc(COS(C)(=O)=O)c1=O | 123 to 124 |
| CC(C)(CCCCCCCCCCC(C)(C)C(Cl)C(=O)O)C(Cl)C(=O)O (stereo unspecified) | 103 to 112 |
| FC(F)(F)c1cc2ncccc2cc1Cl | 137 to 139 |
| CCc1ccccc1CCC(=O)O | 87 to 91 |
